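96-well plates; 48 h exposure; 5 concentrations. Endpoints by linear interpolation between flanking doses. Not reached: highest tested concentration assigned. GI50 = concentration required for 50% inhibition of growth. The concentration for full growth arrest is given as TGI.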
Key:
Experiment in all cases: inhibition of tumour cell growth, NCI panel, 48 h
SK-MEL-28 melanoma = tested on: SK-MEL-28 melanoma
PC-3 prostate = tested on: PC-3 prostate
U251 CNS = tested on: U251 CNS
K-562 leukemia = tested on: K-562 leukemia
LOX IMVI melanoma = tested on: LOX IMVI melanoma
MCF7 breast = tested on: MCF7 breast
RXF 393 renal = tested on: RXF 393 renal
HT29 colon = tested on: HT29 colon
CAKI-1 renal = tested on: CAKI-1 renal
SW-620 colon = tested on: SW-620 colon
SN12C renal = tested on: SN12C renal

SMILES	TGI (SK-MEL-28 melanoma)	TGI (PC-3 prostate)	TGI (U251 CNS)	TGI (K-562 leukemia)	TGI (LOX IMVI melanoma)	TGI (MCF7 breast)	TGI (RXF 393 renal)	TGI (HT29 colon)	TGI (CAKI-1 renal)	TGI (SW-620 colon)	TGI (SN12C renal)	GI50 (LOX IMVI melanoma)
COC(=O)C1=C(C)NC2=C(C(=O)c3ccccc32)C1c1cn(-c2ccccc2)nc1-c1ccccc1 (stereo not drawn)	> 100 µM	> 100 µM	> 100 µM	> 100 µM	> 100 µM	> 100 µM	> 100 µM	> 30.5 µM	> 100 µM	> 100 µM	> 100 µM	–
CCOC(=O)c1c(-c2ccc(OC)cc2)c(C#N)c(=S)n(C2OC(COC(C)=O)C(OC(C)=O)C(OC(C)=O)C2OC(C)=O)c1-c1ccccc1 (stereo not drawn)	> 100 µM	> 100 µM	> 100 µM	> 100 µM	> 100 µM	> 100 µM	> 100 µM	> 100 µM	> 100 µM	> 100 µM	> 100 µM	–
CN=c1nc2sc3c(c2c(NC(=S)NC)s1)CCCC3	> 100 µM	> 100 µM	> 100 µM	> 100 µM	> 100 µM	> 100 µM	82.9 µM	> 100 µM	> 100 µM	> 100 µM	> 100 µM	–
O=C1NC(=O)C(c2c[nH]c3ccccc23)=C1c1cnc[nH]1	> 100 µM	> 100 µM	> 100 µM	> 100 µM	> 100 µM	> 100 µM	> 100 µM	> 100 µM	> 100 µM	> 100 µM	> 100 µM	–
NS(=O)(=O)c1ccc(N=Nc2nc3[nH]c(=O)[nH]c(=O)c3[nH]2)cc1	> 100 µM	> 100 µM	> 100 µM	> 100 µM	> 100 µM	> 100 µM	> 100 µM	> 100 µM	> 100 µM	> 100 µM	> 100 µM	–
Nc1ccc(-c2nc3cc(F)ccc3s2)cc1Cl	> 100 µM	> 100 µM	55.4 µM	> 100 µM	> 100 µM	1.35 µM	> 100 µM	> 100 µM	> 100 µM	> 100 µM	> 71.8 µM	–
CC(=O)Nc1ccc(N2C(=O)/C(=C\c3cccc(Oc4ccccc4)c3)S(=O)(=O)C2c2ccccc2)cc1 (stereo not drawn)	> 100 µM	> 100 µM	> 100 µM	> 100 µM	> 100 µM	> 100 µM	> 100 µM	> 100 µM	> 100 µM	> 100 µM	> 100 µM	–
CC(=O)N(C)c1ccc(Nc2cc(C)[nH]c3ccc4ncnc4c23)cc1	36.5 µM	18 µM	30.6 µM	74 µM	15.9 µM	26 µM	22.9 µM	34 µM	23.8 µM	22.1 µM	34.9 µM	–
Oc1cn(-c2ccc(Cl)cc2)nc1-c1nnc(-c2ccccc2)o1	53.1 µM	> 66.6 µM	30.8 µM	19.6 µM	20.5 µM	7.16 µM	9.55 µM	27.6 µM	11.1 µM	36.4 µM	> 57 µM	1.63 µM
CN(Cc1cnc2nc(N)nc(N)c2n1)c1ccc(C(=O)NC(CCC(=O)NCCC(P(=O)(O)O)P(=O)(O)O)C(=O)O)cc1 (stereo not drawn)	> 100 µM	> 100 µM	> 100 µM	> 100 µM	> 100 µM	> 100 µM	> 100 µM	> 100 µM	> 100 µM	> 100 µM	> 100 µM	–
COc1ccccc1/C(=N\OCCC(=O)O)c1cccs1	> 100 µM	> 100 µM	> 100 µM	> 100 µM	> 100 µM	> 100 µM	> 100 µM	> 100 µM	> 100 µM	> 100 µM	> 100 µM	–
CC(=O)c1ccc(NCc2cc(O)ccc2O)cc1	> 100 µM	41.3 µM	54.5 µM	> 100 µM	74.3 µM	> 100 µM	27.9 µM	> 100 µM	34.6 µM	> 100 µM	92.8 µM	–
Cc1cc(C)n2nc3nc(N)c(C#N)c(-c4ccccc4)c3c2n1	> 100 µM	> 100 µM	> 100 µM	> 100 µM	> 100 µM	> 100 µM	> 100 µM	> 100 µM	> 100 µM	> 100 µM	> 100 µM	–
CC1=CC(C)C/C=C/C2C3OC3(C)C(C)C3C(Cc4c[nH]c5ccccc45)NC(=O)C23C(=O)C=CC(=O)C1O (stereo not drawn)	38.2 µM	30.1 µM	43.2 µM	> 100 µM	17.9 µM	27.1 µM	2.94 µM	6.66 µM	2.94 µM	25.9 µM	30.7 µM	–
CCCCCCCCCC1(N=[N+]=[N-])C(=O)c2ccccc2N(C)C1=O (stereo not drawn)	78.8 µM	> 100 µM	6.31 µM	> 100 µM	34.3 µM	> 100 µM	55.3 µM	> 100 µM	> 100 µM	> 100 µM	57.8 µM	–
CC(C)CC1C(=O)NCCC(NC(=O)C(Cc2ccc(OC(C)(C)C)cc2)NC(=O)OC(C)(C)C)C(=O)NC(Cc2ccccc2)C(=O)NC(Cc2ccccc2)NC1=O (stereo not drawn)	42.4 µM	46.1 µM	27.2 µM	10.3 µM	19.3 µM	52.3 µM	27.2 µM	19.6 µM	> 100 µM	13.6 µM	39.8 µM	–
O=C1C2CC=CCC2C(=O)N1n1c(Cc2ccc(Cl)cc2)n[nH]c1=O (stereo not drawn)	> 100 µM	> 100 µM	> 100 µM	> 100 µM	> 100 µM	> 100 µM	> 100 µM	> 100 µM	> 100 µM	> 100 µM	> 100 µM	–
O=C(O)CC(CC(=O)O)C(=O)O	> 100 µM	> 100 µM	> 100 µM	> 100 µM	> 100 µM	> 100 µM	> 100 µM	> 100 µM	> 100 µM	> 100 µM	> 100 µM	–
O=C(O)CC1NC(/C(=C/c2ccccc2)NC(=O)c2ccccc2)OC1=O (stereo not drawn)	52.4 µM	> 100 µM	34.5 µM	56 µM	36 µM	> 100 µM	> 100 µM	> 100 µM	> 100 µM	42 µM	> 100 µM	–

SMILES	TGI (SK-MEL-28 melanoma)	TGI (PC-3 prostate)	TGI (U251 CNS)	TGI (K-562 leukemia)	TGI (LOX IMVI melanoma)	TGI (MCF7 breast)	TGI (RXF 393 renal)	TGI (HT29 colon)	TGI (CAKI-1 renal)	TGI (SW-620 colon)	TGI (SN12C renal)	GI50 (LOX IMVI melanoma)
OC1[C@@H]2[C@@H](O)[C@H](O)[C@@H](O)N2C[C@@H]1O (stereo partly drawn)	> 100 µM	> 100 µM	> 100 µM	> 100 µM	> 100 µM	> 100 µM	> 100 µM	> 100 µM	> 100 µM	> 100 µM	> 100 µM	–
O=C1NC(NNc2ccccc2)=N/C1=C\c1ccccc1O	> 100 µM	82 µM	> 100 µM	> 100 µM	> 100 µM	> 100 µM	> 100 µM	> 100 µM	> 100 µM	> 100 µM	> 100 µM	–
COc1cc(/C=C2\C[C@H]3[C@@H]4CCc5cc(O)ccc5[C@H]4CC[C@]3(C)C2=O)cc(OC)c1OC	24.8 µM	25.5 µM	38.1 µM	24.8 µM	30.7 µM	> 100 µM	24.1 µM	25 µM	26.6 µM	34.1 µM	39.5 µM	–
Cc1cc(C)n(C(=C(C(Cl)=C(Cl)Cl)[N+](=O)[O-])n2nc(C)cc2C)n1	19.7 µM	13.6 µM	11.7 µM	5 µM	4.69 µM	8.2 µM	16 µM	11.5 µM	8.38 µM	18.2 µM	15.9 µM	–
O=C(C=P(c1ccccc1)(c1ccccc1)c1ccccc1)c1ccc(-c2cccc([N+](=O)[O-])c2)s1	> 100 µM	> 100 µM	> 100 µM	> 100 µM	> 100 µM	> 100 µM	> 100 µM	> 100 µM	> 100 µM	> 100 µM	> 100 µM	–
CC1(C)CC(=O)c2[nH]c3ccccc3c2CC(=O)NCCc2cn1cn2	> 100 µM	> 100 µM	> 100 µM	> 100 µM	> 100 µM	> 100 µM	> 100 µM	> 100 µM	> 100 µM	> 100 µM	> 100 µM	–
CCOC(=O)C1=C(C)N(Cc2ccc(Cl)cc2Cl)C2(O)C=CC(=O)C3C(=O)N(c4ccccc4)C(=O)C132 (stereo not drawn)	3.53 µM	3.55 µM	3.8 µM	4.04 µM	2.38 µM	5.11 µM	2.87 µM	3.5 µM	9.36 µM	5.97 µM	4.93 µM	–
COc1cc(C(=O)n2c3ccc(Br)cc3c3nc4ccccc4nc32)cc(OC)c1OC	> 100 µM	> 100 µM	> 100 µM	> 100 µM	> 100 µM	> 100 µM	66.4 µM	> 100 µM	> 100 µM	> 100 µM	> 100 µM	–
COC(=O)CC(C#N)(OP1(=O)OC(c2ccccc2)C(C)N1C)c1ccccc1 (stereo not drawn)	> 100 µM	> 100 µM	87.3 µM	78.7 µM	53.4 µM	> 100 µM	52.3 µM	53.2 µM	69.3 µM	43.6 µM	77 µM	–
OC1(C(F)(F)F)OCCN=C1C(F)(F)F (stereo not drawn)	> 100 µM	> 100 µM	> 100 µM	> 100 µM	> 100 µM	> 100 µM	> 100 µM	> 100 µM	> 100 µM	> 100 µM	> 100 µM	–
CCCn1c2ccccc2c2ccc3c(c21)C(=O)C=CC3=O	> 3.16 µM	> 8.03 µM	> 10 µM	2.24 µM	> 10 µM	4.59 µM	3.87 µM	> 10 µM	6.1 µM	3.27 µM	> 7.53 µM	–
N=C1/C(=C/c2ccc(F)cc2)C(=O)N=C2SC=NN12	> 100 µM	> 100 µM	> 100 µM	> 100 µM	> 100 µM	> 100 µM	> 100 µM	> 100 µM	> 100 µM	> 100 µM	> 100 µM	–
Cc1cc(C)nc(NC(=O)c2ccc(Br)s2)c1	> 100 µM	> 100 µM	> 100 µM	> 100 µM	> 100 µM	> 100 µM	> 100 µM	> 100 µM	> 100 µM	> 100 µM	> 100 µM	–
O=c1cc(N2CCOCC2)[nH]c(=O)n1-c1ccc(F)cc1	> 100 µM	> 100 µM	> 100 µM	> 100 µM	> 100 µM	> 100 µM	> 100 µM	> 100 µM	> 100 µM	> 100 µM	> 100 µM	–
O=c1cnn(C/C=C/CBr)c(=O)[nH]1	41.9 µM	36.4 µM	28.8 µM	70.6 µM	67.4 µM	36 µM	31.9 µM	29.2 µM	25.6 µM	28.8 µM	41.6 µM	–
Nc1ccc(Oc2ccc(C34CC5CC6C3CC3CC4C(C5)C6(c4ccc(Oc5ccc(N)cc5)cc4)C3)cc2)cc1	> 81.2 µM	51.7 µM	14.9 µM	40.5 µM	> 76.1 µM	> 100 µM	47.8 µM	> 100 µM	48 µM	> 100 µM	> 100 µM	–
C=C(CCC/C(C)=C/C=C/[C@]1(C)CCCc2ccoc21)CC(=O)O	> 100 µM	> 100 µM	> 100 µM	> 100 µM	> 100 µM	> 100 µM	> 100 µM	> 100 µM	> 100 µM	> 100 µM	> 100 µM	–
FC(F)(F)c1ccc(N=C/C=C(/Nc2ccc(C(F)(F)F)cc2)c2ccc(Cl)cc2)cc1	33.4 µM	75.8 µM	28.2 µM	> 100 µM	19.3 µM	48 µM	26.4 µM	24.8 µM	19.6 µM	32.8 µM	26.3 µM	–

From PubChem BioAssay (NCI)
